Measured values: ChEMBL document CHEMBL3733935, “Pyrazolylbenzothiazole derivatives and their use as therapeutic agents” (2013)
Activity calls are given as the source filed them.

What was measured:
Format in all cases: functional, cell-based
Mus musculus [1] = organism: Mus musculus; test: Cytoprotective activity against PAN-induced toxicity in mouse K5P5 cells assessed as increase in cell spreading at 2.5 to 25 uM after 48 to 72 hrs by crystal violet staining assay
Mus musculus [2] = organism: Mus musculus; test: Cytoprotective activity against PAN-induced toxicity in mouse K5P5 cells assessed as increase in cell size at 2.5 to 25 uM after 48 to 72 hrs by crystal violet staining assay
Mus musculus [3] = organism: Mus musculus; test: Cytoprotective activity against PAN-induced toxicity in mouse K5P5 cells assessed as increase in overall cell number at 2.5 to 25 uM after 48 to 72 hrs by crystal violet staining assay

Measured: Activity

COc1cc2sc(-c3c(-c4ccco4)n[nH]c3N)nc2cc1F
active: all assays above

Cc1[nH]nc(N)c1-c1nc2cc(F)c(S(=O)(=O)NCCO)cc2s1
active: all assays above

Cc1[nH]nc(N)c1-c1nc2ccc(CN(C)C)cc2s1
active: all assays above

Cc1[nH]nc(N)c1-c1nc2cc(F)c(S(N)(=O)=O)cc2s1
active: all assays above

CNS(=O)(=O)c1ccc2nc(-c3c(N)n[nH]c3C)sc2c1
active: all assays above
